Data reported in patent publication US10219516B2, “Molecules having pesticidal utility, and intermediates, compositions, and processes, related thereto” (priority 2015, dated 2019).
Where two headings read alike, the source gives them in different places.

Columns and labels:
Assay type in all cases: in vivo
[1] = test system: Beet Armyworm (Spodoptera exigua, LAPHEG); assay: Bioassay on Beet Armyworm (BAW), 128-well diet tray assay
How it was run: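 Diet in each of eight wells received 50 μg/cm^2 of test molecule (90:10 acetone-water, dried), then one to five second-instar larvae were added. Mortality (%) was scored after five to seven days at 25° C. under 14:10 light-dark and averaged across the wells.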

[2] = test system: Yellow Fever Mosquito (Aedes aegypti, AEDSAE); assay: Bioassay on Yellow Fever Mosquito (YFM), 96-well plate larval assay; conditions: for YFM rating: Yellow Fever Mosquito, 96-well plate larval assay; for YFM (Biological Results, rating): Species YFM (Yellow Fever Mosquito)
How it was run: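 Each well was scored for mortality after 3 days at room temperature under a non-evaporative lid. Test molecules came from DMSO masters (4000 ppm stock) diluted with water/acetone 90:10 and dispensed into six replicate plates, which were then infested with roughly 1-day-old larvae in liver-powder water.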

[3] = test system: Cabbage Looper (Trichoplusia ni, TRIPNI); assay: Bioassay on Cabbage Looper (CL), 128-well diet tray assay; conditions: Trichoplusia ni
How it was run: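 Using eight wells per molecule, artificial diet was dosed at 50 μg/cm^2 with compound in 90:10 acetone-water and dried before one to five second-instar larvae were added per well. Covered vented trays were kept at 25° C. with 14:10 light-dark for five to seven days, then per-well percent mortality was recorded and averaged.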

[4] = Beet Armyworm, 128-well diet tray assay, read-out: BAW rating
[5] = Cabbage Looper, 128-well diet tray assay, read-out: CL rating
[6] = Species BAW (Beet Armyworm), read-out: BAW (Biological Results, rating)
[7] = Species CL (Cabbage Looper), read-out: CL (Biological Results, rating)

O=C(Nc1ccc2[nH]c(-c3ccccc3)cc2c1)c1cc(NC(=O)[C@H]2[C@H](c3cc(Cl)cc(Cl)c3)C2(Cl)Cl)ccc1Cl (relative stereo) [F497, 2-Chloro-5-(trans)-(2,2-dichloro-3-(3,5-dichlorophenyl)cyclopropane-1-carboxamido)-N-(2-phenyl-1H-indol-5-yl)benzamide] was tested, and the pest or weed control at 50 µg/cm2 [1, 4] was 50 to 100%, the YFM rating [2] was “A (80-100)” and the pest or weed control at 50 µg/cm2 [3, 5] was 50 to 100%.
In the case of Nc1cc(F)cc(F)c1NC(=O)c1cc(NC(=O)[C@H]2[C@H](c3ccc(Cl)c(Cl)c3)C2(Cl)Cl)ccc1Cl [F407, N-(2-amino-4,6-difluorophenyl)-2-chloro-5-((1R,3R)-2,2-dichloro-3-(3,4-dichlorophenyl)cyclopropane-1-carboxamido)benzamide], the pest or weed control at 50 µg/cm2 [1, 4] was 50 to 100%, the YFM rating [2] was “A (80-100)” and the pest or weed control at 50 µg/cm2 [3, 5] was 50 to 100%.
With Cc1ccc(NC(=O)c2cc(NC(=O)[C@H]3[C@H](c4cc(Cl)cc(Cl)c4)C3(Cl)Cl)ccc2Cl)c([N+](=O)[O-])c1 (relative stereo) [F231, 2-Chloro-5-(trans-2,2-dichloro-3-(3,5-dichlorophenyl)cyclopropane-1-carboxamido)-N-(4-methyl-2-nitrophenyl)benzamide] the pest or weed control at 50 µg/cm2 [1, 6] was 50 to 100%, the “YFM (Biological Results, rating)” value [2] was “A (80-100)” and the pest or weed control at 50 µg/cm2 [3, 7] was 50 to 100%.
With Nc1cc(F)ccc1NC(=O)c1cc(NC(=O)[C@H]2[C@H](c3cc(Cl)cc(Cl)c3)C2(Cl)Cl)ccc1Cl [F575, N-(2-Amino-4-fluorophenyl)-2-chloro-5-((1R,3R)-2,2-dichloro-3-(3,5-dichlorophenyl)cyclopropane-1-carboxamido)benzamide] the pest or weed control at 50 µg/cm2 [1, 4] was 50 to 100%, the YFM rating [2] was “A (80-100)” and the pest or weed control at 50 µg/cm2 [3, 5] was 50 to 100%.
With CC1(c2cc(Cl)cc(Cl)c2)C(C(=O)Nc2ccc(Cl)c(C(=O)Nc3ccc(F)cc3)c2)C1(Cl)Cl (stereo not drawn) [F251, 2-Chloro-5-trans-(2,2-dichloro-3-(3,5-dichlorophenyl)-3-methylcyclopropane-1-carboxamido)-N-(4-fluorophenyl)benzamide] the pest or weed control at 50 µg/cm2 [1, 6] was 50 to 100%, the “YFM (Biological Results, rating)” value [2] was “A (80-100)” and the pest or weed control at 50 µg/cm2 [3, 7] was 50 to 100%.
With O=C(Nc1ccc(F)cc1)c1cc(NC(=O)[C@H]2[C@H](c3cc(Cl)cc(Cl)c3)C2(Br)Br)ccc1Cl (relative stereo) [F122, trans-2-Chloro-5-(2,2-dibromo-3-(3,5-dichlorophenyl)cyclopropane-1-carboxamido)-N-(4-fluorophenyl)benzamide] the pest or weed control at 50 µg/cm2 [1, 6] was 50 to 100%, the “YFM (Biological Results, rating)” value [2] was “B (More than 0-Less than 80)” and the pest or weed control at 50 µg/cm2 [3, 7] was 50 to 100%.
CNc1ccc(NC(=O)c2cc(NC(=O)[C@H]3[C@H](c4cc(Cl)c(Cl)c(Cl)c4)C3(Cl)Cl)ccc2Cl)c(C)c1 (relative stereo) [F223, trans-2-Chloro-5-(2,2-dichloro-3-(3,4,5-trichlorophenyl)cyclopropane-1-carboxamido)-N-(2-methyl-4-(methylamino)phenyl)benzamide] was tested, and the pest or weed control at 50 µg/cm2 [1, 6] was 50 to 100%, the “YFM (Biological Results, rating)” value [2] was “A (80-100)” and the pest or weed control at 50 µg/cm2 [3, 7] was 50 to 100%.
For Cn1ccc2c(NC(=O)c3cc(NC(=O)[C@H]4[C@H](c5cc(Cl)cc(Cl)c5)C4(Cl)Cl)ccc3Cl)cccc21 (relative stereo) [F530, 2-Chloro-5-(trans)-(2,2-dichloro-3-(3,5-dichlorophenyl)cyclopropane-1-carboxamido)-N-(1-methyl-1H-indol-4-yl)benzamide], the pest or weed control at 50 µg/cm2 [1, 4] was 50 to 100%, the YFM rating [2] was “A (80-100)” and the pest or weed control at 50 µg/cm2 [3, 5] was 50 to 100%.
In the case of Cc1cc(NC(=O)OC(C)(C)C)ccc1NC(=O)c1cccc(NC(=O)[C@H]2[C@H](c3cc(Cl)cc(Cl)c3)C2(Cl)Cl)c1 (relative stereo) [F263, trans-tert-Butyl (4-(3-(2,2-dichloro-3-(3,5-dichlorophenyl)cyclopropane-1-carboxamido)benzamido)-3-methylphenyl)carbamate], the pest or weed control at 50 µg/cm2 [1, 6] was 50 to 100%, the “YFM (Biological Results, rating)” value [2] was “B (More than 0-Less than 80)” and the pest or weed control at 50 µg/cm2 [3, 7] was 50 to 100%.
Nc1ccc(NC(=O)c2cc(NC(=O)[C@H]3[C@H](c4cc(Cl)cc(Cl)c4)C3(Cl)Cl)ccc2Cl)nc1 (relative stereo) [F305, N-(5-Aminopyridin-2-yl)-2-chloro-5-(trans-2,2-dichloro-3-(3,5-dichlorophenyl)cyclopropane-1-carboxamido)benzamide] was tested, and the pest or weed control at 50 µg/cm2 [1, 6] was 50 to 100%, the “YFM (Biological Results, rating)” value [2] was “A (80-100)” and the pest or weed control at 50 µg/cm2 [3, 7] was 50 to 100%.
O=C(Nc1ccc(F)cc1)c1cc(NC(=O)[C@H]2[C@H](c3cc(F)c(Br)c(F)c3)C2(Cl)Cl)ccc1Cl (relative stereo) [F538, 5-(trans-3-(4-bromo-3,5-difluorophenyl)-2,2-dichlorocyclopropane-1-carboxamido)-2-chloro-N-(4-fluorophenyl)benzamide] was tested, and the pest or weed control at 50 µg/cm2 [1, 4] was 50 to 100%, the YFM rating [2] was “A (80-100)” and the pest or weed control at 50 µg/cm2 [3, 5] was 50 to 100%.
CNc1ccc(NC(=O)c2cc(NC(=O)[C@H]3[C@H](c4ccc(F)c(Cl)c4)C3(Cl)Cl)ccc2Cl)cc1 (relative stereo) [F261, trans-2-Chloro-5-(2,2-dichloro-3-(3-chloro-4-fluorophenyl)cyclopropane-1-carboxamido)-N-(4-(methylamino)phenyl)benzamide] was tested, and the pest or weed control at 50 µg/cm2 [1, 6] was 50 to 100%, the “YFM (Biological Results, rating)” value [2] was “A (80-100)” and the pest or weed control at 50 µg/cm2 [3, 7] was 50 to 100%.
For O=C(Nc1cc2ocnc2cc1F)c1cc(NC(=O)C2C(c3cc(Cl)cc(Cl)c3)C2(Cl)Cl)ccc1Cl (stereo not drawn) [F453, 2-Chloro-5-(trans)-2,2-dichloro-3-(3,5-dichlorophenyl)cyclopropane-1-carboxamido)-N-(5-fluorobenzo[d]oxazol-6-yl)benzamide], the pest or weed control at 50 µg/cm2 [1, 4] was 50 to 100%, the YFM rating [2] was “A (80-100)” and the pest or weed control at 50 µg/cm2 [3, 5] was 50 to 100%.
O=C(Nc1ccc(F)cc1F)c1cc(NC(=O)[C@H]2[C@H](c3ccc(Cl)c(Br)c3)C2(Cl)Cl)ccc1Cl (relative stereo) [F331, 5-(trans-3-(3-Bromo-4-chlorophenyl)-2,2-dichlorocyclopropane-1-carboxamido)-2-chloro-N-(2,4-difluorophenyl)benzamide] was tested, and the pest or weed control at 50 µg/cm2 [1, 6] was 50 to 100%, the “YFM (Biological Results, rating)” value [2] was “A (80-100)” and the pest or weed control at 50 µg/cm2 [3, 7] was 50 to 100%.
With C=Cc1cc([C@H]2[C@H](C(=O)Nc3ccc(Cl)c(C(=O)Nc4ccc(F)cc4F)c3)C2(Cl)Cl)ccc1Cl (relative stereo) [F351, 2-Chloro-5-(trans-2,2-dichloro-3-(4-chloro-3-vinylphenyl)cyclopropane-1-carboxamido)-N-(2,4-difluorophenyl)benzamide] the pest or weed control at 50 µg/cm2 [1, 6] was 50 to 100%, the “YFM (Biological Results, rating)” value [2] was “A (80-100)” and the pest or weed control at 50 µg/cm2 [3, 7] was 50 to 100%.
In the case of O=C(Nc1ccc(F)cc1[N+](=O)[O-])c1cc(NC(=O)[C@H]2[C@H](c3ccc(F)c(Cl)c3)C2(Cl)Cl)ccc1Cl [F557, 2-Chloro-5-((1R,3R)-2,2-dichloro-3-(3-chloro-4-fluorophenyl)cyclopropane-1-carboxamido)-N-(4-fluoro-2-nitrophenyl)benzamide], the pest or weed control at 50 µg/cm2 [1, 4] was 50 to 100%, the YFM rating [2] was “A (80-100)” and the pest or weed control at 50 µg/cm2 [3, 5] was 50 to 100%.
Nc1ccc(F)c(NC(=O)c2cc(NC(=O)[C@H]3[C@H](c4ccc(F)c(Cl)c4)C3(Cl)Cl)ccc2Cl)c1 [F430, N-(5-Amino-2-fluorophenyl)-2-chloro-5-((1R,3R)-2,2-dichloro-3-(3-chloro-4-fluorophenyl)cyclopropane-1-carboxamido)benzamide] was tested, and the pest or weed control at 50 µg/cm2 [1, 4] was 50 to 100%, the YFM rating [2] was “A (80-100)” and the pest or weed control at 50 µg/cm2 [3, 5] was 50 to 100%.
With N#Cc1cc(F)ccc1NC(=O)c1cc(NC(=O)[C@@H]2[C@@H](c3cc(Cl)cc(Cl)c3)C2(Cl)Cl)ccc1Cl [F536, 2-Chloro-N-(2-cyano-4-fluorophenyl)-5-((1S,3S)-2,2-dichloro-3-(3,5-dichlorophenyl)cyclopropane-1-carboxamido)benzamide] the pest or weed control at 50 µg/cm2 [1, 4] was 50 to 100%, the YFM rating [2] was “A (80-100)” and the pest or weed control at 50 µg/cm2 [3, 5] was 50 to 100%.
In the case of O=C(Nc1cccc2cc[nH]c12)c1cc(NC(=O)[C@H]2[C@H](c3cc(Cl)cc(Cl)c3)C2(Cl)Cl)ccc1Cl (relative stereo) [F529, 2-Chloro-5-(trans)-(2,2-dichloro-3-(3,5-dichlorophenyl)cyclopropane-1-carboxamido)-N-(1H-indol-7-yl)benzamide], the pest or weed control at 50 µg/cm2 [1, 4] was 50 to 100%, the YFM rating [2] was “A (80-100)” and the pest or weed control at 50 µg/cm2 [3, 5] was 50 to 100%.
In the case of O=C(Nc1ncc(F)cc1F)c1cc(NC(=O)[C@H]2[C@H](c3cccc(C(F)F)c3)C2(Cl)Cl)ccc1Cl (relative stereo) [F590, 2-Chloro-5-(trans-2,2-dichloro-3-(3-(difluoromethyl)phenyl)cyclopropane-1-carboxamido)-N-(3,5-difluoropyridin-2-yl)benzamide], the pest or weed control at 50 µg/cm2 [1, 4] was 50 to 100%, the YFM rating [2] was “A (80-100)” and the pest or weed control at 50 µg/cm2 [3, 5] was 50 to 100%.
In the case of O=C(Nc1cc(F)cc([N+](=O)[O-])c1)c1cc(NC(=O)[C@H]2[C@H](c3ccc(F)c(Cl)c3)C2(Cl)Cl)ccc1Cl [F418, 2-Chloro-5-((1R,3R)-2,2-dichloro-3-(3-chloro-4-fluorophenyl)cyclopropane-1-carboxamido)-N-(3-fluoro-5-nitrophenyl)benzamide], the pest or weed control at 50 µg/cm2 [1, 4] was 50 to 100%, the YFM rating [2] was “A (80-100)” and the pest or weed control at 50 µg/cm2 [3, 5] was 50 to 100%.
